The values below come from patent publication US9783518B2, “Therapeutic agent and treatment method for ameliorating uremia” (Toray Industries, Inc., priority 2005, dated 2017).

For experiment [1], the system named is renal function impairment induced by uninephrectomy, high sodium loading and protein loading. Particulars: cited from earlier work.
In experiment [2] the test system is streptozotocin-induced diabetic nephropathy rats. Particulars: cited from earlier work.
The subject of experiment [3] is HUS. Particulars: in vivo; cited from earlier work.
The subject of experiment [4] is cats with chronic renal failure. Briefly: Blood biochemical analysis and urinalysis (BUN, serum Cre, glucose) in cats with chronic renal failure. It is filed as in vivo, cat. Particulars: Case-F, male cat 11 y, diabetic nephropathy; protamine zinc insulin 2 units/BID, 2 months. Here is the method: Testing methods for the patients showing uremia caused by chronic renal failure, employed in Example 4 or later, will now be described. The criteria and evaluation items for the cats and dogs with chronic renal failure are as follows: Diagnosis of uremia and chronic renal failure were performed totally taking clinical findings (including findings of uremia) and the results of the blood test, blood biochemical analysis and urinalysis into consideration. As the clinical findings of uremia, existence and degree of polydipsia and diuresis, dehydration, anorexia, weight loss, vomiting symptom and state of dehydration were observed. Existence of chronic renal failure was judged based on the serum Cre value as generally employed. As reference data for grasping the degree of progress of chronic renal failure, BUN value was also monitored.
In the blood test, RBC, WBC, PCV, Hg and PLT were measured. In the blood biochemical analysis, TP, Tcho, AST, ALT, ALP, Tbil, BUN, creatinine, calcium, inorganic phosphorus, glucose, sodium ion, potassium ion and chloride ion were measured. In the urinalysis, protein amount, pH, occult blood, bilirubin and glucose were measured. To eliminate the circadian rhythm and influence by meals on the values of blood biochemical markers, every blood collection was carried out in the morning before feeding (at fasting).
As a more specific criterion for chronic renal failure in cats and dogs in the present Examples, a serum Cre value of 1.4 mg/dL in the blood test was employed. Serum Cre value was measured by creatinine deaminase-amidohydrolase method, and the BUN value as reference data for grasping the degree of progress of chronic renal failure was measured by urease-GLDH method.
Administration of beraprost sodium was conducted by orally administering the tablet with a content of 150 μg/tablet (Example 1) twice a day (300 μg/head/day). The administration was conducted every day and continued basically for 6 months, and in cases where the owner desired, the administration was continued even after the test period. The Examples of the present invention include both cases where the dosing period was less than 6 months and more than 6 months.

Experiment [5] concerns HUS. Particulars: one case of HUS; cited from earlier work.
For experiment [6], the system named is Thy-1-induced nephritis models. Particulars: prophylactic administration before induction of nephritis; cited from earlier work.

For `CCC#CC[C@H](C)[C@H](O)C#C[C@@H]1[C@H]2C/C(=C/COCC(=O)O)C[C@H]2C[C@H]1O` [cicaprost], the renal function impairment entry in experiment [1] and in experiment [2] was “activity to reduce the renal function impairment” throughout.
Take `CCCCC[C@H](O)/C=C/[C@@H]1[C@H]2C/C(=C/CCCC(=O)O)O[C@H]2C[C@H]1O` [PGI2, prostaglandin I2]: in the experiment on HUS [3], the “progress of HUS” value is given as “does not have an activity to inhibit the progress of HUS”.
Consider “insulin: protamine zinc insulin for treating diabetes”, for which the fasting blood glucose in experiment [4] is 100 mg/dL.
Take `CC#CCC(C)[C@H](O)/C=C/[C@@H]1[C@H]2C/C(=C/CCCC(=O)O)C[C@H]2C[C@H]1O` (stereo partly drawn) [iloprost]: the “improvement of the serum Cre value” with HUS [5] is listed as “effective”. In addition, the urinary protein entry in experiment [6] is on record as “decreased”.
